Assay: xn = mol fraction of the nth substance listed
Conditions: 101.3 kPa, Liquid

O=C1CCCCC1 [cyclohexanone] + CC(C)O
Conditions	mass density, 298.15 K [kg/m3]	mass density, 303.15 K [kg/m3]	mass density, 308.15 K [kg/m3]	mass density, 313.15 K [kg/m3]	viscosity, 298.15 K [mPa·s]	viscosity, 303.15 K [mPa·s]	viscosity, 308.15 K [mPa·s]	viscosity, 313.15 K [mPa·s]
x1 = 0.0812	797.69	792.97	788.11	783.28	1.689	1.489	1.301	1.142
x1 = 0.1576	812.54	807.67	802.73	797.79	1.436	1.268	1.098	0.961
x1 = 0.2398	827.76	822.83	817.68	812.71	1.236	1.081	0.934	0.817
x1 = 0.3495	846.99	841.93	836.59	831.76	1.067	0.934	0.809	0.715
x1 = 0.4363	861.43	856.27	851.05	846.26	1.023	0.899	0.779	0.689
x1 = 0.5601	880.96	875.76	870.51	865.33	1.076	0.951	0.845	0.751
x1 = 0.6502	894.41	889.21	884.09	878.95	1.177	1.056	0.949	0.854
x1 = 0.7403	907.32	902.15	897.23	892.17	1.331	1.202	1.087	0.995
x1 = 0.8481	922.15	917.06	912.28	907.09	1.581	1.437	1.301	1.211
x1 = 0.9384	934.01	929.05	924.41	919.35	1.845	1.675	1.537	1.412
x1 = 1	941.91	937.24	932.67	927.72	2.057	1.847	1.694	1.546
